According to patent EP4635500A1, “THERAPEUTIC AGENT FOR BACTERIAL INFECTION” (Sumitomo Pharma Co., Ltd., priority 2022, dated 2024):
Values after ≈ are worked out from the molar mass of the structure shown.

Tests used:
A. baumannii = experiment: MIC, broth microdilution, CDC/FDA Antibiotic Resistance Isolate Bank (Example 7, Tables 9, 13, 14); assay type: cell-based, Acinetobacter baumannii
Enterobacterales = experiment: MIC, broth microdilution, CDC/FDA Antibiotic Resistance Isolate Bank (Example 7, Tables 8, 11, 12); assay type: cell-based
P. aeruginosa = experiment: MIC, broth microdilution, CDC/FDA Antibiotic Resistance Isolate Bank (Example 7, Tables 10, 15); assay type: cell-based

## C[C@H]1COc2c(N3CCN(C)CC3)c(F)cc3c(=O)c(C(=O)O)cn1c23 [Levotloxacin]
A. baumannii; A. baumannii KUB No. 5567, AR Bank #70, OXA-58, OXA-100
  MIC: 4 µg/mL (≈ 11.1 µM)
A. baumannii; A. baumannii KUB No. 5575, AR Bank #78, OXA-71
  MIC: 32 µg/mL (≈ 88.6 µM)
A. baumannii; A. baumannii KUB No. 5580, AR Bank #83, OXA-23, OXA-69, NDM-1
  MIC: 8 µg/mL (≈ 22.1 µM)
A. baumannii; A. baumannii KUB No. 5585, AR Bank #88, OXA-64, NDM-1
  MIC: 8 µg/mL (≈ 22.1 µM)
A. baumannii; A. baumannii KUB No. 5598, AR Bank #101, OXA-24, OXA-65
  MIC: 16 µg/mL (≈ 44.3 µM)
A. baumannii; A. baumannii KUB No. 5599, AR Bank #102, OXA-66
  MIC: 8 µg/mL (≈ 22.1 µM)
A. baumannii; A. baumannii KUB No. 5706, AR Bank #273, OXA-23, OXA-66
  MIC: 64 µg/mL (≈ 177 µM)
A. baumannii; A. baumannii KUB No. 5707, AR Bank #274, OXA-66, OXA-72
  MIC: 16 µg/mL (≈ 44.3 µM)
A. baumannii; A. baumannii KUB No. 5708, AR Bank #275, OXA-23, OXA-66
  MIC: 8 µg/mL (≈ 22.1 µM)
A. baumannii; A. baumannii KUB No. 5709, AR Bank #276, no carbapenemase genes (-)
  MIC: 16 µg/mL (≈ 44.3 µM)
A. baumannii; A. baumannii KUB No. 5710, AR Bank #277, OXA-24, OXA-65
  MIC: 16 µg/mL (≈ 44.3 µM)
A. baumannii; A. baumannii KUB No. 5711, AR Bank #278, OXA-23, OXA-66
  MIC: 8 µg/mL (≈ 22.1 µM)
A. baumannii; A. baumannii KUB No. 5712, AR Bank #279, OXA-23, OXA-66
  MIC: 8 µg/mL (≈ 22.1 µM)
A. baumannii; A. baumannii KUB No. 5713, AR Bank #280, OXA-66
  MIC: 16 µg/mL (≈ 44.3 µM)
A. baumannii; A. baumannii KUB No. 5714, AR Bank #281, OXA-82
  MIC: 8 µg/mL (≈ 22.1 µM)
A. baumannii; A. baumannii KUB No. 5715, AR Bank #282, OXA-23, OXA-66
  MIC: 8 µg/mL (≈ 22.1 µM)
A. baumannii; A. baumannii KUB No. 5716, AR Bank #283, OXA-23, OXA-66
  MIC: 16 µg/mL (≈ 44.3 µM)
A. baumannii; A. baumannii KUB No. 5717, AR Bank #284, OXA-24, OXA-65
  MIC: 16 µg/mL (≈ 44.3 µM)
A. baumannii; A. baumannii KUB No. 5718, AR Bank #285, OXA-24, OXA-65
  MIC: 64 µg/mL (≈ 177 µM)

## C[C@H]1COc2c(N3CCN(C)CC3)c(F)cc3c(=O)c(C(=O)O)cn1c23 [Levoflexacin]
Enterobacterales; Enterobacter aerogenes, KUB No. 5559, AR Bank # 62
  MIC: 2 µg/mL (≈ 5.53 µM)
Enterobacterales; Enterobacter aerogenes, KUB No. 5571, AR Bank # 74
  MIC: 0.12 µg/mL (≈ 0.332 µM)
Enterobacterales; Enterobacter cloacae, KUB No. 5562, AR Bank # 65
  MIC: 0.12 µg/mL (≈ 0.332 µM)
Enterobacterales; Enterobacter cloacae, KUB No. 5569, AR Bank # 72
  MIC: 0.5 µg/mL (≈ 1.38 µM)
Enterobacterales; Enterobacter cloacae, KUB No. 5570, AR Bank # 73
  MIC: 0.25 µg/mL (≈ 0.692 µM)
Enterobacterales; Enterobacter cloacae, KUB No. 5590, AR Bank # 93
  MIC: 4 µg/mL (≈ 11.1 µM)
Enterobacterales; Escherichia coli, KUB No. 5558, AR Bank # 61
  MIC: 0.12 µg/mL (≈ 0.332 µM)
Enterobacterales; Escherichia coli, KUB No. 5564, AR Bank # 67
  MIC: 32 µg/mL (≈ 88.6 µM)
Enterobacterales; Escherichia coli, KUB No. 5566, AR Bank # 69
  MIC: 0.12 µg/mL (≈ 0.332 µM)
Enterobacterales; Escherichia coli, KUB No. 5574, AR Bank # 77
  MIC: 0.06 µg/mL (≈ 0.166 µM)
Enterobacterales; Escherichia coli, KUB No. 5578, AR Bank # 81
  MIC: 32 µg/mL (≈ 88.6 µM)
Enterobacterales; Escherichia coli, KUB No. 5581, AR Bank # 84
  MIC: 64 µg/mL (≈ 177 µM)
Enterobacterales; Escherichia coli, KUB No. 5582, AR Bank # 85
  MIC: 32 µg/mL (≈ 88.6 µM)
Enterobacterales; Escherichia coli, KUB No. 5583, AR Bank # 86
  MIC: 8 µg/mL (≈ 22.1 µM)
Enterobacterales; Escherichia coli, KUB No. 5586, AR Bank # 89
  MIC: 0.12 µg/mL (≈ 0.332 µM)
Enterobacterales; Klebsiella oxytoca, KUB No. 5568, AR Bank # 71
  MIC: 0.5 µg/mL (≈ 1.38 µM)
Enterobacterales; Klebsiella ozaenae, KUB No. 5593, AR Bank # 96
  MIC: 32 µg/mL (≈ 88.6 µM)
Enterobacterales; Klebsiella pneumoniae, KUB No. 5563, AR Bank # 66
  MIC: 64 µg/mL (≈ 177 µM)
Enterobacterales; Klebsiella pneumoniae, KUB No. 5565, AR Bank # 68
  MIC: 64 µg/mL (≈ 177 µM)
Enterobacterales; Klebsiella pneumoniae, KUB No. 5572, AR Bank # 75
  MIC: >64 µg/mL
Enterobacterales; Klebsiella pneumoniae, KUB No. 5573, AR Bank # 76
  MIC: 1 µg/mL (≈ 2.77 µM)
Enterobacterales; Klebsiella pneumoniae, KUB No. 5576, AR Bank # 79
  MIC: 64 µg/mL (≈ 177 µM)
Enterobacterales; Klebsiella pneumoniae, KUB No. 5577, AR Bank # 80
  MIC: 0.12 µg/mL (≈ 0.332 µM)
Enterobacterales; Klebsiella pneumoniae, KUB No. 5584, AR Bank # 87
  MIC: >64 µg/mL
Enterobacterales; Klebsiella pneumoniae, KUB No. 5594, AR Bank # 97
  MIC: >64 µg/mL
Enterobacterales; Klebsiella pneumoniae, KUB No. 5595, AR Bank # 98
  MIC: 64 µg/mL (≈ 177 µM)
Enterobacterales; Providencia rettgeri, KUB No. 5579, AR Bank # 82
  MIC: 0.25 µg/mL (≈ 0.692 µM)
Enterobacterales; Serratia marcescens, KUB No. 5588, AR Bank # 91
  MIC: 0.25 µg/mL (≈ 0.692 µM)

## O=C(O)c1cn(C2CC2)c2cc(N3CCNCC3)c(F)cc2c1=O [Ciyprofloxacin]
P. aeruginosa; P. aeruginosa KUB No. 5681, AR Bank # 248
  MIC: 8 µg/mL (≈ 24.1 µM)
P. aeruginosa; P. aeruginosa KUB No. 5684, AR Bank # 251
  MIC: 4 µg/mL (≈ 12.1 µM)
P. aeruginosa; P. aeruginosa KUB No. 5685, AR Bank # 252
  MIC: 8 µg/mL (≈ 24.1 µM)
P. aeruginosa; P. aeruginosa KUB No. 5694, AR Bank # 261
  MIC: 2 µg/mL (≈ 6.04 µM)
P. aeruginosa; P. aeruginosa KUB No. 5695, AR Bank # 262
  MIC: 0.5 µg/mL (≈ 1.51 µM)
P. aeruginosa; P. aeruginosa KUB No. 5696, AR Bank # 263
  MIC: 1 µg/mL (≈ 3.02 µM)
P. aeruginosa; P. aeruginosa KUB No. 5700, AR Bank # 267
  MIC: 8 µg/mL (≈ 24.1 µM)
P. aeruginosa; P. aeruginosa KUB No. 5701, AR Bank # 268
  MIC: 4 µg/mL (≈ 12.1 µM)
P. aeruginosa; P. aeruginosa KUB No. 5703, AR Bank # 270
  MIC: 8 µg/mL (≈ 24.1 µM)
